Source: US20240252508A1, “Novel glucose uptake inhibitors for use in the treatment of cancer” (NOVELYEAST BV, priority 2021, published 2024)
Entries after “also recorded” stand apart in the source; their conditions may differ.

What was measured:
tps1Δ cells [1] = assay: Growth rescue of tps1Δ strain on glucose (growth curves, 2% galactose medium); type: cell-based, S. cerevisiae
Summary of the method: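 Growth at 30 °C was tracked by OD595 readings every 30 min, with at least triplicate technical wells. Cells came from 2% galactose synthetic precultures, were washed and set to OD 0.1, and received compound 10 min ahead of the glucose addition.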

[2] = test system: A549 lung adenocarcinoma cells; assay: A549 cell proliferation / growth inhibition; type: cell-based, human; settings: 1 mM glucose
Summary of the method: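 A549 growth screened in RPMI with 1 mM glucose, compounds at 50 μM; cell number from counts of Hoechst-stained nuclei after 3 days. Growth curves also followed by IncuCyte phase-contrast confluency over 3–5 days (1000–1500 cells/well), DMSO ≤0.1%, ≥4 technical repeats.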

tps1Δ cells [3] = assay: Glu6P and Fru1,6bisP levels after glucose addition to tps1Δ cells; type: cell-based, S. cerevisiae
Description: For measuring metabolite levels, cells were typically grown in Complete Synthetic medium. […] However, when comparing the effect of Warbicins on metabolite profiles of wild type and tps1Δ strains (FIG. 2f-k), cells were grown on 2% galactose. When grown to exponential phase, cells were harvested by centrifugation and washed twice with ice-cold 25 mM 2-(N-Morpholino)ethanesulfonic acid (MES) buffer, pH 6. Cells were suspended in Complete Synthetic medium without sugar at a concentration of 75 mg (wet weight)/mL followed by a temperature equilibration at 30° C. in a shaking water bath for 30 min. Depending on the experiment, a final concentration of 2.5 mM, 7.5 mM or 10 mM glucose was added to the cell suspension. Compounds were added 10 min prior to glucose addition. […]
Through endpoint measurement of the absorbance of NADH or NADPH at 340 nm, metabolite concentrations were calculated by applying Lambert's Law. Different metabolites were measured through the use of coupled enzymatic reactions. […] Depending on the measured metabolite, different co-factors and auxiliary enzymes were added. For measuring glucose-6-phosphate, 0.8 mg/ml NADP^+ was added to the assay buffer after which the baseline absorbance was measured. […] After stabilization of the OD340 spectra, ATP concentrations were measured by additionally adding 10 mM MgCl2 and 0.5 mM glucose to the assay buffer. […]

tps1Δ cells [4] = assay: Zero-trans glucose uptake in tps1Δ yeast cells; type: cell-based, S. cerevisiae; settings: 2.5 mM glucose, tps1Δ cells
Description: Zero-trans uptake of radioactively labeled [U-^14C]glucose, [U-^14C]fructose or [U-^14C]galactose by S. cerevisiae cells was determined in accordance with previous studies^44,66. Cells were grown on different carbon sources depending on the experiment. For measuring glucose uptake activity in the tps1Δ and tps1Δ hxtA strains (FIG. 1b,c), cells were grown on YP medium containing 3% glycerol (measurement of 10s). Typically, for compound characterization and kinetic studies in wild type and tps1Δ strains, cells were (pre)grown on Complete Synthetic medium supplemented with 2% galactose (measurement of 10s). In the experiments on the influence of hexokinase activity on the sugar uptake rate, the measurement duration was shortened to 5s and cells were always grown on YP medium containing 3% glycerol and 2% ethanol. After harvesting, cells were washed twice with ice-cold 25 mM MES-buffer pH 6, and resuspended in their respective medium without sugar to a final concentration of 45 mg (wet weight)/mL. The amount of added tracer was estimated to give a response close to at least 1000 counts per min in order to adequately counter background noise. Cells were first preincubated for 10 min at 30° C. with the compound to acclimate the cells to the temperature and to allow adequate interaction with the compound prior to uptake. Next, hexose sugar was mixed with the cell suspension, which was then incubated for 5 or 10 s, depending on the experiment, after which the cells were rapidly filtered over a glass microfiber filter (Whatman GF/C) and washed three times with ice-cold dH2O. The loaded filter was transferred to a scintillation vial containing 3 mL liquid scintillation cocktail (Ultima-Flo M, Perkin Elmer) and counted using the Hidex 300 SL. Three blank measurements per strain were typically included to account for background signal, for which the cells were first quenched before adding the radioactive label.

[5] = test system: A549 lung adenocarcinoma cells; assay: 2-deoxyglucose uptake in A549 cells; type: cell-based, human
Description: Zero-trans glucose uptake in A549 cells was approximated by measuring the uptake of [1,2-^3H]2-deoxyglucose. For this purpose, A549 cells were pregrown in RPMI medium containing 10 mM glucose in a 24-well plate to a cell density of around 100,000 cells/well. Prior to adding radioactive label, cells were gently washed twice in Krebs-Ringer-HEPES buffer (50 mM HEPES pH 7.4, 137 mM NaCl, 4.7 mM KCl, […], 1.3 mM MgSO4 and 0.1% w/v BSA) at 30° C. to remove any residual sugar. RPMI medium without sugar containing the compound intended for treatment, was added to the cells for 15 min at 37° C. to allow adequate interaction of the cells with the compound.
The uptake measurement was initiated by adding an equal volume of medium containing radiolabeled 2DG. After 3-4 min, medium was aspirated and cells were gently washed three times with ice-cold Krebs-Ringer-HEPES buffer. Cells were lysed by adding 200 μL of ice-cold 0.1 M NaOH solution and incubating the plate for 10 min at 37° C. Cell lysates were transferred to scintillation vials for subsequent scintillation counting. For blank measurements, cells were incubated with 50 μM Cytochalasin B prior to the uptake measurement.

[6] = test system: MCF10A breast epithelia cell line transformed with the H-RAS^V12 allele; assay: MCF10A H-RAS^V12 growth and apoptosis (IncuCyte); type: cell-based, human; settings: 25 μM
Description: For both adherent A549 and MCF10Δ H-RAS^V12 cell lines, growth curves were established using the IncuCyte® ZOOM technology. By collecting phase contrast images, the IncuCyte® software provides a calculated confluency percentage from which growth curves can be deducted.
Cells were seeded at a density of 1000-1500 cells/well in a Nunc-Edge™ 96-well plate (Thermo Fisher Scientific) and growth was typically measured over 3 to 5 days. For the measurement of apoptosis induction using the MCF10Δ H-RAS^V12 cell line, the IncuCyte® Caspase-3/7 green dye was added to the medium in the recommended concentration at the beginning of the growth curve experiment. Apoptosis was detected by taking fluorescent images by excitation at 488 nm followed by IncuCyte® software analysis. Cell growth of the KMS-12-PE multiple myeloma cell line, which grows in suspension, was measured by manual cell counting. Cells were initially seeded at a density of 10^4 cells/well and incubated for 4 days after which the cell number was counted. For all cell lines, the same medium used for pregrowth was also used for the growth curve experiment, albeit with different glucose concentrations depending on the experimental design. With compound administration, the final concentration of DMSO never exceeded 0.1%. Typically, at least four technical repeats were included per condition.

[7] = test system: U266 multiple myeloma cell line; assay: U266 proliferation (cell count); type: cell-based, human; settings: 25 μM, 4 days, RPMI with 1 mM glucose
Description: a. Cell count of the U266 multiple myeloma cell line after 4 days of growth on RPMI medium with 1 mM glucose. Cells were treated with either DMSO or 25 μM of WBC-A, -15C, -4C or -11C. Glucose consumption (b.) or lactate secretion (c.) rates are shown for U266 cells incubated in RPMI medium supplemented with 1 mM glucose for 8 h.

[8] = test system: A549 lung adenocarcinoma cells; assay: Steady-state glucose consumption and lactate production in A549 cells; type: cell-based, human; settings: 25 μM, 1 mM glucose, 8 h
Description: (§1) The influence of WBC compounds on the steady-state glucose consumption rate was studied in the A549 adenocarcinoma and KMS-12-PE multiple myeloma cell lines. As such, different parameters needed to be optimized depending on whether cells were adherent or in suspension. As such, A549 cells were incubated at 125,000 cells/well in a 24-well plate in 300 μL RPMI medium for 8 h. For the KMS-12-PE cell line, 100,000 cells/well were incubated in 100 μL RPMI medium in a 96-well plate for 8 h. Medium was collected, spun down and HPLC-analyzed for measuring glucose and lactate levels. Metabolite levels were corrected for cell number, which always varied little over the span of 8 h. For every condition, at least 4 technical repeats were included.

[9] = test system: KMS-12-PE multiple myeloma cells; assay: Steady-state glucose consumption and lactate production in KMS-12-PE cells; type: cell-based, human; settings: 25 μM, 1 mM glucose, 8 h
Description: as §1

[10] = Warbicin toxicity and tolerability in mice; type: in vivo, NMRI-nu mice
Description: Warbicin in vivo toxicity and tolerability was examined by subjecting NMRI-nu mice to daily intraperitoneal injection of either WBC-A, WBC-15C, WBC-4C or WBC-11C. Compounds were dosed at either 5 mg/kg, 10 mg/kg or 20 mg/kg over a period of 20 days. Three mice were used per condition. To evaluate toxicity, change in body weight was registered daily. As a humane endpoint, mice that lost more than 20% of their original body weight were prematurely sacrificed. An optimal dissolve strategy was developed to administer WBC compounds by intraperitoneal injection. Due to their considerable hydrophobicity, compounds were dissolved in a sterilized 1×PBS, 5% DMSO and 5% Tween-80 solution. For WBC-A, -15C and -4C, this gives an initial clear solution that gradually changes over time into a homogenous suspension which can still be administered in a reproducible way. For WBC-11C it immediately results in a homogenous suspension.

Row | Compound | Rescue of the tps1Δ strain on 2.5 mM glucose at 100 μM (tps1Δ cells [1]; 100 μM compound, 2.5 mM glucose) | Rescue of tps1Δ cells on 2.5 mM glucose (tps1Δ cells [1]; 100 μM, 2% galactose + 2.5 mM glucose) | Selected from primary screen for growth inhibition of A549 cells at 50 μM ([2]; 50 μM compound) | Glu6P and Fru1,6bisP hyperaccumulation after addition of 2.5 mM glucose (tps1Δ cells [3]) | Minimal rescue concentration for growth of tps1Δ cells on 2.5 mM glucose (tps1Δ cells [1]; 2.5 mM glucose) [µM] | IC50 (tps1Δ cells [4]) [µM] | Potency in reducing maximal growth rate of A549 cells ([2]; 6.25-50 μM) | Ki ([5]; Cornish-Bowden plot analysis, printed K′, read-out: K′i, 2-deoxyglucose uptake in A549 cells) [µM] | Type of inhibition of 2-deoxyglucose uptake in A549 cells ([5]; Lineweaver-Burk plot analysis) | Proliferation of MCF10A H-RAS^V12 cell line on 1 mM glucose [6] | Induction of apoptosis (caspase 3/7 dye) in MCF10A H-RAS^V12 cells ([6]; 1 mM glucose) | Proliferation of U266 cell line [7] | Glucose consumption and lactate production in A549 cells [8] | Glucose consumption and lactate production in KMS-12-PE cells [9] | Loss in body weight over 20 days ([10]; daily i.p. 5, 10 and 20 mg/kg, nude mice) | Body weight drop at 10 and 5 mg/kg around day 5 and 11 ([10]; daily i.p. 10 and 5 mg/kg) | Toxic effects in organs at autopsy, 20 and 10 mg/kg ([10]; daily i.p. 20 and 10 mg/kg, not observed at lower concentrations) | AST/ALT ratio vs vehicle ([10]; sera after 20 days, 5, 10, 20 mg/kg i.p.) | Blood glucose level vs vehicle ([10]; sera post mortem after 20 days, 5, 10, 20 mg/kg i.p.)
1 | Cc1nc(SCC(N)=O)c2c3c(sc2n1)CCCC3 [55C] | No | highly active | No | did not prevent hyperaccumulation of sugar phosphates |  |  |  |  |  |  |  |  |  |  |  |  |  |  | 
2 | Cc1nc(SCC(=O)c2ccc3c(c2)NC(=O)CO3)c2c(-c3cccs3)csc2n1 [WBC-11C] |  |  |  |  | 50 | 44 | most | 7.53 | uncompetitive | highest potency | strong induction of apoptosis | inhibit proliferation | inhibited | inhibited | no significant loss in body weight; also recorded: No significant difference | small transient drop | toxic effects were seen in the liver and other organs | No significant difference | No significant difference
